37 compounds from ChEMBL document CHEMBL4483862, “Open-source discovery of chemical leads for next-generation chemoprotective antimalarials” (2018) can be followed below.

This assay has as its system Plasmodium berghei. The assay can be described thus: Luciferase/luciferin-expressing antifolate-resistant parasites were used to infect a culture of HepG2 cells that were pre-incubated with compounds. Infected hepatocytes emit light due to the luciferase reaction. Assay results are presented as the percent inhibition of light emission compared to control. […]. The note with it: sporozoite; for IC90: read-out: LUCIFERASE INFECTION ASSAY - IC90. Type of assay: functional.

Setting [1] is: PBLUC_HILL_SLOPE 2.91, PBLUC_R_SQUARED 0.109, read-out: LUCIFERASE INFECTION ASSAY - IC50.

Turning to `NCCCNc1ccnc2cc(Cl)ccc12`, the IC90 was above 14 µM. Where the note is “PBLUC_HILL_SLOPE 2.91, PBLUC_R_SQUARED 0.438, read-out: LUCIFERASE INFECTION ASSAY - IC50”, the concentration for half-maximal inhibition (IC50) is 8.74 µM.
Regarding `CCc1c(C)[nH]c2c(-c3ccc(Cl)cc3)c(C)nn2c1=O`, the IC90 was above 10.9 µM. Besides, the IC50 (PBLUC_HILL_SLOPE 2.9, PBLUC_R_SQUARED 0.859, read-out: LUCIFERASE INFECTION ASSAY - IC50) was 6.48 µM.
As for `CCCc1c(C)[nH]c2[nH]n(-c3nc(C)cc(C)n3)c(=O)c2c1=O`, the IC90 is above 10.5 µM. Further, where the note is “PBLUC_HILL_SLOPE 2.87, PBLUC_R_SQUARED 0.443, read-out: LUCIFERASE INFECTION ASSAY - IC50”, the IC50 is above 10.5 µM.
Turning to `CSc1[nH]nc(-c2cc(C(C)(C)C)oc2C)c1C#N`, the IC90 is above 12 µM. Further, the half-maximal inhibitory concentration (IC50) (PBLUC_HILL_SLOPE 2.91, PBLUC_R_SQUARED 0.01, read-out: LUCIFERASE INFECTION ASSAY - IC50) was determined as 8.62 µM.
As for `Cc1c(-c2ccccc2)sc2ncnc(NCC(=O)N3CCCC3)c12`, the IC90 is above 10 µM. The IC50 (PBLUC_HILL_SLOPE 2.95, PBLUC_R_SQUARED 0.129, read-out: LUCIFERASE INFECTION ASSAY - IC50) was 5.82 µM.
Regarding `CC(C)(C)Nc1ccn2nc(-c3ccco3)cc2n1`, the IC90 is above 12.9 µM. The IC50 (PBLUC_HILL_SLOPE 2.89, PBLUC_R_SQUARED 0.538, read-out: LUCIFERASE INFECTION ASSAY - IC50) stood at 8.49 µM.
`Cc1nc2nc(C(F)(F)F)nn2c(C)c1CCC(=O)N1CCCC1c1ccc2c(c1)OCCCO2` (centres undefined): the IC90 came to 8.93 µM. The IC50 (PBLUC_HILL_SLOPE 2.87, PBLUC_R_SQUARED 0.605, read-out: LUCIFERASE INFECTION ASSAY - IC50) came to 4.15 µM.
With `Cc1cc(=O)nc(N/N=C/c2cc(C)n(-c3ccccc3Cl)c2C)[nH]1`, the IC90 is above 10 µM. The half-maximal inhibitory concentration (IC50) (PBLUC_HILL_SLOPE 2.91, PBLUC_R_SQUARED 0.512, read-out: LUCIFERASE INFECTION ASSAY - IC50) amounted to 9.21 µM.
As to `O=C(NCc1ccccc1)C(=Cc1ccc(-c2ccccc2)cc1)C(=O)NCc1ccccc1`, the IC90 was 9.48 µM. For the same compound, under “PBLUC_HILL_SLOPE 2.95, PBLUC_R_SQUARED 0.782, read-out: LUCIFERASE INFECTION ASSAY - IC50”, the IC50 came out at 4.51 µM.
Consider `O=S(=O)(/C=C/c1ccccc1)N1CCCC(c2nc3ccccc3s2)C1` (centres undefined), for which the IC90 is above 10 µM. Also, the IC50 (PBLUC_HILL_SLOPE 2.87, PBLUC_R_SQUARED 0.652, read-out: LUCIFERASE INFECTION ASSAY - IC50) was above 10 µM.
With `CCOc1ccc(-n2c(C)cc(/C=C(\C#N)c3ccccn3)c2C)cc1`, the 90% effect concentration (IC90) is above 10 µM. The IC50 (PBLUC_HILL_SLOPE 2.96, PBLUC_R_SQUARED 0.363, read-out: LUCIFERASE INFECTION ASSAY - IC50) stood at 8.53 µM.
For the compound `CC(=O)Nc1ccc(Sc2cc(C)nc(C(C)C)n2)cc1`, the 90% effect concentration (IC90) was found to be 9.81 µM. For the setting “PBLUC_HILL_SLOPE 2.86, PBLUC_R_SQUARED 0.342, read-out: LUCIFERASE INFECTION ASSAY - IC50”, the IC50 is 4.56 µM.
`O=C(NC1CC1)c1ccc(CN(C2CC2)S(=O)(=O)c2ccc3c(c2)OCCCO3)cc1`: the IC90 is 5.38 µM. Also, for the setting “PBLUC_HILL_SLOPE 2.85, PBLUC_R_SQUARED 0.458, read-out: LUCIFERASE INFECTION ASSAY - IC50”, the IC50 turned out to be 2.49 µM.
Take `COc1cc2c(cc1OC)C(c1ccccc1Cl)N(C(=O)c1sc3ccccc3c1Cl)CC2` (centres undefined): the IC90 was above 6.62 µM. Further, under “PBLUC_HILL_SLOPE 2.93, PBLUC_R_SQUARED 0.186, read-out: LUCIFERASE INFECTION ASSAY - IC50”, the IC50 was 4.9 µM.
`CC(C)(C)c1ccc(/C=C2\CCc3c2nc2ccccc2c3C(=O)OCC(=O)NNC(=O)c2ccccc2F)cc1`: the IC90 stood at 5.46 µM. For the setting “PBLUC_HILL_SLOPE 2.93, PBLUC_R_SQUARED 0.289, read-out: LUCIFERASE INFECTION ASSAY - IC50”, the half-maximal inhibitory concentration (IC50) was found to be 2.58 µM.
`CN(C(=O)CN1C(=O)NC(c2ccccc2)(c2ccccc2)C1=O)C1CCCc2ccccc21` (centres undefined): the IC90 is above 10 µM. Further, the IC50 (PBLUC_HILL_SLOPE 2.94, PBLUC_R_SQUARED 0.848, read-out: LUCIFERASE INFECTION ASSAY - IC50) was found to be 5.62 µM.
As for `c1ccc(-c2cn3nc(NCc4cccs4)sc3n2)cc1`, the concentration for an effect of 90% (IC90) was above 10 µM. Also, the IC50 (PBLUC_HILL_SLOPE 2.88, PBLUC_R_SQUARED 0.313, read-out: LUCIFERASE INFECTION ASSAY - IC50) was 4.87 µM.
Turning to `O=C(NC1CCCC1)c1ccc(-c2cn3c(-c4ccc(C(=O)NC5CC5)cc4)cnc3cn2)cc1`, the IC90 was above 7.09 µM. Also, the IC50 (PBLUC_HILL_SLOPE 2.95, PBLUC_R_SQUARED 0.52, read-out: LUCIFERASE INFECTION ASSAY - IC50) is 4.87 µM.
For the compound `N=C(Cc1cccs1)NOC(=O)Nc1cc(Cl)cc(Cl)c1`, the IC90 is above 9.59 µM. Further, for the setting “PBLUC_HILL_SLOPE 2.97, PBLUC_R_SQUARED 0.445, read-out: LUCIFERASE INFECTION ASSAY - IC50”, the IC50 was 6.76 µM.
Consider `CCOC(=O)C1CCCN(Cn2nc(-c3ccc(Br)cc3)n(C3CCCCC3)c2=S)C1` (centres undefined), for which the IC90 was above 10 µM. In addition, the IC50 under setting [1] is 5.86 µM.
As to `COc1cccc(Nc2nccc3nc(-c4cccc(OC(F)(F)F)c4)[nH]c23)c1`, the IC90 was above 10 µM. In addition, the IC50 (PBLUC_HILL_SLOPE 2.87, PBLUC_R_SQUARED 0.483, read-out: LUCIFERASE INFECTION ASSAY - IC50) is 5.1 µM.
Regarding `CCCc1cc(NCc2cccnc2)n2ncc(-c3ccccc3)c2n1`, the IC90 was above 9.61 µM. Further, the IC50 (PBLUC_HILL_SLOPE 2.86, PBLUC_R_SQUARED 0.143, read-out: LUCIFERASE INFECTION ASSAY - IC50) turned out to be 6.97 µM.
As for `CNc1nc2cnc(Nc3cc(C(F)(F)F)ccc3F)cc2n1-c1ccccc1`, the IC90 is above 10 µM. The IC50 (PBLUC_HILL_SLOPE 2.9, PBLUC_R_SQUARED 0.508, read-out: LUCIFERASE INFECTION ASSAY - IC50) was 6.14 µM.
Consider `Cc1nc2ccccc2n1CCC(=O)Nc1ccc2ccccc2c1`, for which the IC90 was above 10 µM. For the setting “PBLUC_HILL_SLOPE 2.97, PBLUC_R_SQUARED 0.444, read-out: LUCIFERASE INFECTION ASSAY - IC50”, the IC50 turned out to be 7.73 µM.
In the case of `CN(C)c1ccc(S(N)(=O)=O)cc1NC(=O)Cc1ccc(-c2ccccc2)cc1`, the IC90 was above 10 µM. For the same compound, the IC50 (PBLUC_HILL_SLOPE 2.92, PBLUC_R_SQUARED 0.577, read-out: LUCIFERASE INFECTION ASSAY - IC50) stood at 5.33 µM.
With `COCCCn1c(-c2ccc(C(C)(C)C)cc2)n[nH]c1=S`, the IC90 was above 10.8 µM. Also, the IC50 (PBLUC_HILL_SLOPE 2.97, PBLUC_R_SQUARED 0.207, read-out: LUCIFERASE INFECTION ASSAY - IC50) was 6.76 µM.
As to `C#CCSc1nnc(-c2ccc(C(C)(C)C)cc2)n1C`, the IC90 was 5.91 µM. Under “PBLUC_HILL_SLOPE 2.86, PBLUC_R_SQUARED 0.337, read-out: LUCIFERASE INFECTION ASSAY - IC50”, the half-inhibitory concentration (IC50) amounted to 2.74 µM.
`O=C(Oc1ccc(Cl)cc1Cc1ccccc1)c1ccccc1-c1ccc(C(F)(F)F)cc1`: the IC90 is above 10 µM. In addition, for the setting “PBLUC_HILL_SLOPE 2.87, PBLUC_R_SQUARED 0.0345, read-out: LUCIFERASE INFECTION ASSAY - IC50”, the IC50 came out at 8.61 µM.
As to `COc1cc(CCC2CCN(c3ccc4nnc(C(F)(F)F)n4n3)CC2)cc(OC)c1`, the IC90 is above 10 µM. Also, the IC50 (PBLUC_HILL_SLOPE 2.86, PBLUC_R_SQUARED 0.563, read-out: LUCIFERASE INFECTION ASSAY - IC50) turned out to be 5.92 µM.
For `CCCc1cc(C(=O)Nc2ccc(OC(F)F)cc2)sc1C`, the IC90 is above 10 µM. Also, for the setting “PBLUC_HILL_SLOPE 2.93, PBLUC_R_SQUARED 0.424, read-out: LUCIFERASE INFECTION ASSAY - IC50”, the concentration for half-maximal inhibition (IC50) came to 8.81 µM.
For `CCN(CC)S(=O)(=O)c1ccc(N2CCOCC2)c(NC(=O)c2cc(-c3cc(OC)c(OC)c(OC)c3)nc3ccccc23)c1`, the IC90 came out at 8.54 µM. In addition, the IC50 (PBLUC_HILL_SLOPE 2.9, PBLUC_R_SQUARED 0.79, read-out: LUCIFERASE INFECTION ASSAY - IC50) was 4.01 µM.
Turning to `FC(F)(F)Oc1cccc(-c2ccc3ncc(-c4cccs4)n3n2)c1`, the IC90 is above 10 µM. Where the note is “PBLUC_HILL_SLOPE 2.85, PBLUC_R_SQUARED 0.222, read-out: LUCIFERASE INFECTION ASSAY - IC50”, the IC50 came out at 9.07 µM.
As to `CN(C)c1cccc(-c2cnc3cnc(-c4ccc(C(=O)NC5CC5)cc4)cn23)c1`, the 90% effect concentration (IC90) was above 8.3 µM. Further, the IC50 (PBLUC_HILL_SLOPE 2.95, PBLUC_R_SQUARED 0.0505, read-out: LUCIFERASE INFECTION ASSAY - IC50) was determined as 7.62 µM.
As for `O=S(=O)(c1ccccc1)c1nc(/C=C/c2ccccc2)oc1NCc1ccco1`, the IC90 is above 10 µM. Moreover, where the note is “PBLUC_HILL_SLOPE 2.89, PBLUC_R_SQUARED 0.0298, read-out: LUCIFERASE INFECTION ASSAY - IC50”, the IC50 is 5.62 µM.
For `COc1ccc(CCN(C)c2ccc(S(=O)(=O)N(C(C)C)C(C)C)cn2)cc1OC`, the 90% effect concentration (IC90) is above 10 µM. Also, the IC50 under setting [1] came out at 5.86 µM.
Take `Cc1cccc(C)c1NC(=O)Nc1cccn(Cc2ccc(Cl)cc2)c1=O`: the IC90 was above 8.64 µM. The IC50 (PBLUC_HILL_SLOPE 2.91, PBLUC_R_SQUARED 0.157, read-out: LUCIFERASE INFECTION ASSAY - IC50) amounted to 7.92 µM.
Consider `O=C(NNc1cccc(F)n1)C(F)(F)F`, for which the IC90 is 0.37 µM. For the same compound, the IC50 (PBLUC_HILL_SLOPE 2.9, PBLUC_R_SQUARED 0.705, read-out: LUCIFERASE INFECTION ASSAY - IC50) was 0.174 µM.

As usually defined, the IC50 is the midpoint of a concentration-inhibition curve. Usually IC90 stands for the concentration needed for an effect of 90%.
